Source: patent publication US11464768B2, “Pimavanserin alone or in combination for use in the treatment of Alzheimer's disease psychosis” (ACADIA Pharmaceuticals Inc., priority 2016, dated 2022)

Tests used:
[1] = system: hyperactivity induced by the N-methyl-D-aspartate antagonist MK-801; conditions: mice; effective in these models at oral doses of 3 and 10 mg/kg; cited from earlier work
[2] = system: DOI ((±)-2,5-dimethoxy-4-iodoamphetamine, a serotonin agonist) induced head twitches; conditions: rat; effective in these models at oral doses of 3 and 10 mg/kg; cited from earlier work
ADP patients [3] = assay: Twelve-week randomized, double-blind, placebo-controlled study in ADP patients: NPI-NH psychosis score (Domains A and B); format: in vivo, human; conditions: for improvement in psychosis at day 43 / improvement in psychosis at day 43 (NPI-NH Psychosis subscale): Table 2 Delta; for NPI-NH PSYCHOSIS SCORE at day 43, Effect Size: pimavanserin vs placebo
Excerpt: To determine the score for a given domain, the caregivers rate frequency and severity of the resident's behavior for that particular domain. The frequency is rated on a 0-4 point scale. For example, the frequency is rated as a) 0 for not present; b) 1 for occasional; c) 2 for often; d) 3 for frequent; and e) 4 for very frequent occurrence of the behavior in question. The severity is rated on a 1-3 point scale. For example, the severity is rated as a) 1 for mild; b) 2 for moderate; and 3 for severe. The score of each domain is determined by multiplying the frequency rating score by the severity rating score. The score of each domain ranges from 0 to 12.
A psychosis score on the psychosis subscale is the total score of the score of delusions (Domain A) and hallucinations (Domain B). For example, when the delusions score (Domain A) is 4 and the hallucinations score (Domain B) is 6, the psychosis score is 10. The psychosis score typically ranges from 0 to 24.
A twelve-week, randomized, double-blind, placebo-controlled, single-center study was conducted in ADP patients in nursing homes. A purpose of the study was to evaluate the safety and efficacy of 34 mg pimavanserin compared to placebo in the treatment of ADP.
A total of 181 nursing home patients were enrolled in the study and randomized on a one-to-one basis to receive either 34 mg of pimavanserin or placebo once daily for twelve weeks, following a three-week screening period including brief psycho-social therapy. Patients with Alzheimer's disease (AD) are defined by the National Institute of Neurological and Communicative Disorders and Stroke-Alzheimer's Disease and Related Disorder Association (NINCDS-ADRDA) criteria for possible or probable AD (McKhann et al., Neuro., 1984, vol. 34, 939-944.) The mean age of patients in the study was 86 years.
After completing initial Screening Visit procedures (SV1), patients entered a 3-week screening period with antipsychotic medication washout. During the screening period, the patients received brief psychosocial therapy (BPST; Ballard et al., 2009) following best practice guidelines and safety assessments were performed. After the first Screening Visit (SV1), there were two additional contacts at weekly intervals with the BPST caregiver by phone (SV2 and SV3) to support the patient and the BPST caregiver in this screening phase. Safety assessments were also collected during this phase. At the discretion of the investigator and upon consultation with the Medical Monitor, patients were randomized into the double-blind phase of the study at any time during the screening period if there is a substantial worsening of psychotic symptoms.
Patients were randomized to one of two treatment groups in a 1:1 ratio (pimavanserin 34 mg or placebo), stratified by Baseline Mini-Mental State Examination (MMSE) total score and Neuropsychiatric Inventory-Nursing Home Version (NPI-NH) psychosis score (Domains A and B) (4 levels: MMSE<6 and NPI-NH<12, MMSE>6 and NPI-NH<12, MMSE<6 and NPI-NH>12, MMSE>6 and NPI-NH>12), and entered a 12 week double-blind treatment period.
Nursing home staff administered the study drug to the patient each morning as a single oral dose (2×17 mg tablets) beginning within 24 hours of completion of all baseline assessments (Day 1). During the double-blind treatment period, study visits were performed as follows: Baseline, Day 15, Day 29, Day 43, Day 64, and Day 85 (or early termination). A follow-up telephone safety visit occurred 4 weeks after the last dose of study medication. The NPI-NH psychosis subscale (Delusions+Hallucinations domains) was used to assess psychosis. Behavioral symptoms were assessed using the NPI-NH Total and Individual Behavioral Domain scores and the Cohen-Mansfield Agitation Inventory—Short Form (CMAI-SF). […]

ADP patients [4] = assay: Same twelve-week study: safety assessment (adverse events); format: in vivo, human; conditions: for tolerability and safety profile: 34 mg once daily for twelve weeks, 181 patients in safety assessment
Experimental: Each patient participated in a 3-week screening period, a 12-week double-blind treatment period, and a 4-week follow-up period. The maximum duration of the study for each patient was approximately 19 weeks. Pimavanserin was administered in tablet form, once daily by mouth in 34 mg doses (2 tablets of 17 mg pimavanserin), equivalent to 40 mg pimavanserin tartrate. (2 tablets of 20 mg pimavanserin tartrate) Placebo was administered with visibly matching tablets, using the same route and regimen. The safety of subjects was assessed by monitoring adverse events, physical examinations, vital signs, clinical laboratory tests (hematology, clinical chemistry, and urinalysis), and electrocardiograms. Furthermore cognitive status was assessed via MMSE.
The results of the study were obtained from a majority of the 181 patients, some of the patients were excluded from the endpoint results but all 181 patients were included in the safety assessment.

For `CC(C)COc1ccc(CNC(=O)N(Cc2ccc(F)cc2)C2CCN(C)CC2)cc1` [Pimavanserin, N-(1-methylpiperidin-4-yl)-N-(4-fluorophenylmethyl)-N′-(4-(2-methylpropyloxy)phenylmethyl)carbamide], the “attenuation of hyperactivity induced by MK-801” value [1] is given as “active”, the “activity in DOI induced head twitches” value [2] is given as “active” and the durability of efficacy (ADP patients [3]; 34 mg once daily, 12 week study) is given as “demonstrated an efficacy throughout the 12 week study”. The “NPI-NH PSYCHOSIS SCORE at day 43, Pimavanserin Group (change from baseline)” value (“NPI-NH PSYCHOSIS SCORE … (change from baseline)” for short) (ADP patients [3]; 34 mg once daily, subgroup Baseline Agitation/Aggression Score <6 (n = 85), post-hoc analysis) was −1.40, the “NPI-NH PSYCHOSIS SCORE … (change from baseline)” value (ADP patients [3]; 34 mg once daily, subgroup Baseline Agitation/Aggression Score ≥6 (n = 93), post-hoc analysis) was −6.09 and the “NPI-NH PSYCHOSIS SCORE … (change from baseline)” value (ADP patients [3]; 34 mg once daily, subgroup Baseline NPI-NH Psychosis Score <12 (n = 57), negative = improvement) was −0.58. For the same molecule, the “NPI-NH PSYCHOSIS SCORE … (change from baseline)” value (ADP patients [3]; 34 mg once daily, subgroup Baseline NPI-NH Psychosis Score ≥12 & Agitation/Aggression Score ≥6 (n = 38), post-hoc analysis) was −10.93, the “NPI-NH PSYCHOSIS SCORE … (change from baseline)” value (ADP patients [3]; 34 mg once daily, subgroup Baseline NPI-NH Psychosis score ≥12 (n = 121), negative = improvement) was −10.15 and the “NPI-NH PSYCHOSIS SCORE … (change from baseline)” value (ADP patients [3]; 34 mg once daily, subgroup No Prior Anti-psychotic use (n = 162)) was −4.15. For the same molecule, the “NPI-NH PSYCHOSIS SCORE … (change from baseline)” value (ADP patients [3]; 34 mg once daily, subgroup Prior Anti-psychotic use (n = 16)) was −1.52, the “improvement in psychosis, NPI-NH Psychosis score (combined hallucinations and delusions domains), primary endpoint” value (ADP patients [3]; 34 mg once daily, week 6, all patients, baseline mean 9.52, placebo 1.93 point, p=0.0451) was 3.76 point and the “improvement in psychosis at day 43” value (ADP patients [3]; baseline NPI-NH Psychosis score of 12 or greater and baseline Agitation/Aggression score of 6 or greater, p-value=0.0010) was 7.18. For the same molecule, the “effect on NPI-NH psychosis score (in words)” value (“effect … (in words)” below) (ADP patients [3]; baseline NPI-NH psychosis score of 12 or greater and baseline Agitation/Aggression score of 6 or greater, p=0.0010) was “effectively reduced”, the “improvement in psychosis at day 43” value (ADP patients [3]; patients having a baseline NPI-NH Agitation/Aggression score of 6 or greater, p-value=0.0010) was 4.41 point and the “effect … (in words)” value (ADP patients [3]; patients having a baseline NPI-NH Agitation/Aggression score of 6 or greater, p=0.001) was “effectively reduced”. The “aggravating in psychosis at day 43” value (ADP patients [3]; patients having a baseline NPI-NH Agitation/Aggression score of less than 6, p-value=NS) was 0.42, the “improvement in psychosis at day 43 (NPI-NH Psychosis subscale)” value (ADP patients [3]; patients having a baseline NPI-NH Psychosis score of 12 or greater, p-value=0.0114) was 4.43 point and the “effect … (in words)” value (ADP patients [3]; patients having a baseline NPI-NH psychosis score of 12 or greater, p=0.0114) was “effectively reduced”. The “improvement in psychosis at day 43 (NPI-NH Psychosis subscale)” value (ADP patients [3]; patients having a baseline NPI-NH psychosis score of less than 12, p-value=NS) was 0.42, the “improvement in psychosis at day 43” value (ADP patients [3]; patients that had anti-psychotic use prior to the baseline measurement on day 0, p-value=NS) was 6.53 point and the “effect … (in words)” value (ADP patients [3]; patients who had prior anti-psychotic use) was “effectively reduced”. The “reduction of mean NPI-NH Psychosis score from baseline” value (ADP patients [3]; pimavanserin arm, baseline NPI-NH Psychosis score of 12 or greater, baseline 15.30, day 43) was 66.3%, the “mean NPI-NH Psychosis score at day 43” value (ADP patients [3]; pimavanserin arm, baseline NPI-NH Psychosis score of 12 or greater, baseline score 15.30) was 5.15 and the “NPI-NH PSYCHOSIS SCORE at day 43, Effect Size” value (ADP patients [3]; subgroup Baseline Agitation/Aggression Score <6 (n = 85), post-hoc) was 0.122. The “NPI-NH PSYCHOSIS SCORE at day 43, Effect Size” value (ADP patients [3]; subgroup Baseline Agitation/Aggression Score ≥6 (n = 93), post-hoc) was −0.778, the “NPI-NH PSYCHOSIS SCORE at day 43, Effect Size” value (ADP patients [3]; subgroup Baseline NPI-NH Psychosis Score <12 (n = 57)) was −0.077 and the “NPI-NH PSYCHOSIS SCORE at day 43, Effect Size” value (ADP patients [3]; subgroup Baseline NPI-NH Psychosis Score ≥12 & Agitation/Aggression Score ≥6 (n = 38), post-hoc) was −1.225. For the same molecule, the “NPI-NH PSYCHOSIS SCORE at day 43, Effect Size” value (ADP patients [3]; subgroup Baseline NPI-NH Psychosis score ≥12 (n = 121)) was −0.734, the “NPI-NH PSYCHOSIS SCORE at day 43, Effect Size” value (ADP patients [3]; subgroup No Prior Anti-psychotic use (n = 162)) was −0.351 and the “NPI-NH PSYCHOSIS SCORE at day 43, Effect Size” value (ADP patients [3]; subgroup Prior Anti-psychotic use (n = 16)) was −0.905. For the same molecule, the “NPI-NH PSYCHOSIS SCORE at day 43, Delta (difference between placebo group and pimavanserin group in change from baseline)” value (ADP patients [3]; subgroup Baseline Agitation/Aggression Score <6 (n = 85), post-hoc, P-Value NS) was 0.68, the “NPI-NH PSYCHOSIS SCORE at day 43, Delta (difference between placebo group and pimavanserin group in change from baseline)” value (ADP patients [3]; subgroup Baseline Agitation/Aggression Score ≥6 (n = 93), post-hoc, P-Value 0.0010) was −4.41 and the “NPI-NH PSYCHOSIS SCORE at day 43, Delta (difference between placebo group and pimavanserin group in change from baseline)” value (ADP patients [3]; subgroup Baseline NPI-NH Psychosis Score <12 (n = 57), P-Value NS) was −0.42. For the same molecule, the “NPI-NH PSYCHOSIS SCORE at day 43, Delta (difference between placebo group and pimavanserin group in change from baseline)” value (ADP patients [3]; subgroup Baseline NPI-NH Psychosis Score ≥12 & Agitation/Aggression Score ≥6 (n = 38), post-hoc, P-Value 0.0010) was −7.18, the “NPI-NH PSYCHOSIS SCORE at day 43, Delta (difference between placebo group and pimavanserin group in change from baseline)” value (ADP patients [3]; subgroup Baseline NPI-NH Psychosis score ≥12 (n = 121), P-Value 0.0114) was −4.43 and the “NPI-NH PSYCHOSIS SCORE at day 43, Delta (difference between placebo group and pimavanserin group in change from baseline)” value (ADP patients [3]; subgroup No Prior Anti-psychotic use (n = 162), P-Value 0.0374) was −1.90. The “NPI-NH PSYCHOSIS SCORE at day 43, Delta (difference between placebo group and pimavanserin group in change from baseline)” value (ADP patients [3]; subgroup Prior Anti-psychotic use (n = 16), P-Value NS) was −6.53, the “treatment effect in patients with a concomitant Selective Serotonin Reuptake Inhibitor (SSRI) use” value (ADP patients [3]; subgroup analysis, compared with no concomitant SSRI use) was “treatment effect larger than those with no concomitant SSRI use” and the “efficacious effect relative to placebo” value (ADP patients [3]; worded as an embodiment) was “about 2 times”. For the same molecule, the “tolerability and safety profile” value (ADP patients [4]) was “safe and well tolerated”, the “tolerability and safety profile” value (ADP patients [4]; listed as pimavanserin) was “well tolerated” and the “effect on cognitive function or motor functions” value (ADP patients [4]; pimavanserin arm (same in placebo arm)) was “no negative effect on cognitive function or motor functions”. For the same molecule, the “adverse event: falls” value (ADP patients [4]; pimavanserin arm, placebo arm 23.1%) was 23.3% and the “adverse event: urinary tract infection” value (ADP patients [4]; pimavanserin arm, placebo arm 27.5%) was 22.2%.
